Measured values as given in publication PMC12067858 (Febs Letters, 2025).

Target: T1, NcAA9C (Neurospora crassa, UniProt Q7SHI8)
T1 construct: gene gh61-3; copper-saturated
T1 sequence (Q7SHI8 17-359): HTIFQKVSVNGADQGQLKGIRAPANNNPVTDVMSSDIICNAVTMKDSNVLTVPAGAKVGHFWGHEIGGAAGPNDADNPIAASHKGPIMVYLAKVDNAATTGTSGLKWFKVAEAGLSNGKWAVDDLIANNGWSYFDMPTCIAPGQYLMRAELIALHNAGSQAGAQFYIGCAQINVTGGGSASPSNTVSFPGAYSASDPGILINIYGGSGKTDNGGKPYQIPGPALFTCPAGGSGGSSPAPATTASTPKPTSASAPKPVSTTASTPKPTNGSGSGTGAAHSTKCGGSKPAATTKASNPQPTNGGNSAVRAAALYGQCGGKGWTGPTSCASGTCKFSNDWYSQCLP
Test: HPAEC-PAD of cellotriose product
Type: biochemical
Settings: 1 uM enzyme, 100 uM ascorbate, 100 uM H2O2, 50 mM MOPS pH 7.0, 30 C

OC[C@H]1O[C@@H](O[C@H]2[C@H](O)[C@@H](O)[C@H](O[C@H]3[C@H](O)[C@@H](O)[C@H](O[C@H]4[C@H](O)[C@@H](O)[C@H](O[C@H]5[C@H](O)[C@@H](O)C(O)O[C@@H]5CO)O[C@@H]4CO)O[C@@H]3CO)O[C@@H]2CO)[C@H](O)[C@@H](O)[C@@H]1O (stereo partly shown) [cellopentaose]
HPAEC-PAD of cellotriose product: conversion of small, soluble and easily diffusible cellopentaose by NcAA9C
